{"source": "patent US20090180958A1", "about": "“Diagnostic and therapeutic agents” (Karyon-CTT Ltd., priority 2005, published 2009)", "key": {"[1]": {"assay": "Immunogenicity: immunization of mice and serological antibody ELISA", "assay_type": "in vivo, balb/c female mice", "settings": "i.p. 50 μg day 0, 25 μg days 14, 28, 56, 84; end point bleed day 98, serum 1:40; HP201 as capture antigen", "method": "Mice and immunization. Female 6- to 8-week old balb/c female mice (Harlan Laboratories, The Netherlands) were used in this study. The targeting unit IS257 (described in Example 3) was dissolved in sterile saline at 0.5 mg/ml and 0.25 mg/ml concentrations. A group of five mice were initially immunized intraperitoneally with 50 μg of targeting unit on day 0. The following immunizations were done with 25 μg of targeting unit on days 14, 28, 56 and 84. Mice were bled from the tail vein on day 0 (preimmune bleed) and thereafter on days 42, 70, and 98 (end point bleed). Blood was collected in tubes and the serum was clarified by centrifugation at 3500 RPM for 7 minutes. […]\nSerological antibody assay. […] The wells were washed five times with washing buffer (PBS containing 0.05% Tween20) before incubating for 1 h at 37° C. with 150 μl of a 1:1000 dilution of horseradish peroxidase conjugated Affinipure of goat anti-mouse IgG+IgM (Jackson ImmunoResearch Europe Ltd) and detected with a DAB (3,3′-diaminobentzidine) substrate kit for peroxidase (Vector Laboratories).\nAs a positive control the horseradish peroxidase conjugated Affinipure goat anti-mouse IgG+IgM (10 μg/ml) was used to coat the wells of Reacti-Bind Maleimide activated clear strip plate overnight at 4° C. […] The plates were read at 405 nm using an ELISA plate reader (ThermoLabsysrems Multiskan EX)."}, "[2]": {"assay": "In vivo cytotoxicity (behaviour after i.v. injection)", "parameters": "species or system Athymic nude mice", "settings": "1 mg i.v. tail vein; observed 30 min after injection and 15 min on following day", "method": "The behaviour of mice was observed during 30 min right after injection and during 15 min on the following day (comparison to non-injected mouse). Three mice were taken into this study (plus non-injected controls)."}, "[3]": {"tested_on": "A549, NCI-H23, NCI-H520, NCI-H460, C8161/M1, HeLa, NIH3T3, E10V, SVEC4-10 cell lines", "assay": "Cytotoxicity assay (MTT)", "assay_type": "cell-based", "settings": "50 μg/ml and 500 μg/ml; 24 h, 48 h (72 h); all nine tested cell lines", "method": "In this assay cell lines were exposed to two different concentrations (50 μg/and 500 μg/ml) of IS257 targeting unit (described in Example 3) for two to three days to test the toxicity of the peptides. The measurement of cell viability was done with MTT (Thiazolyl blue, Sigma M-5655 ) tetrazolium salt. MTT is cleaved to water-insoluble formazan dye by the “succinate-tetrazolium reductase” system which is active only in viable cells. After formazan was solubilized by 10% SDS-0.01 M HCl, it was quantified in an ELISA spectrometer (ThermoLabsystems Multiscan EX) at 560 nm. CuSAO2 [trans-bis(salicylaldoximato) copper(II)] (Elo HO, Lumme PO., 1985) 7.5 μg/ml was used as a positive control for 100% toxicity.\nProcedure. Cells were trypsinized from the cell culture dish (ø9 cm) with 1 ml of TE for 1-5 minutes and moved to a 50 ml Falcon tube. […]\nThen 40 μl of IS257 targeting unit in appropriate medium were added to the wells in two concentrations, so that final concentrations were 50 μg/ml and 500 μg/ml, and the volume of the wells was raised back to 100 μl. […] The next day the cell morphology was analyzed with a microscope. […]\nThe next day, the MTT assay described above was performed. The viable count (v.c.) was calculated as:\nAverage toxicated cell absorbance−Average DMEM absorbance=Viable count Average living cell absorbance−Average DMEM absorbance […]"}, "A549 cells": {"tested_on": "A549 cells", "assay": "Fluorescent targeting agent staining of fixed cells", "assay_type": "cell-based, human", "settings": "500 μg/ml in PBS, pH 7.4, added prior to F5M-A49", "procedure": "A549 cells and HeLa cells (described in Example 18) were grown on glass slides, washed with PBS and then fixed with methanol. The fluorescent targeting agent F5M-A49 (described in Example 10) was used to stain these cells as follows: Cells were first blocked with blocking buffer (1.0% BSA, 0.05% Tween20 in PBS, pH 7.4) for one hour at 20° C. The cells on the glass slides were incubated with 20 μl of F5M-A49 targeting agent (50 μg/ml in PBS, pH 7.4). As control, binding of F5M-A49 was competed with 20 μl of IS257 targeting unit (free peptide described in Example 3), 500 μg/ml in PBS, pH 7.4) prior to addition of the targeting agent. As negative controls, cells not incubated with any targeting agent were used. After the staining the cells were mounted on object glasses with mountex (Histolab Products Ltd). After this cells were viewed under a fluorescent microscope (Carl Zeiss Microscopy, Jena, Germany)."}}}
{"substance": "Ac-ARRPKLD-NH2 [IS257]", "values": [{"measurement": "immunogenicity (anti-targeting unit antibodies in serum, ELISA, absorbance at 405 nm)", "setting": "[1]", "result": "non-immunogenic"}, {"measurement": "toxic effect on mice (behaviour)", "setting": "[2]", "result": "did not have any toxic effect"}, {"measurement": "toxicity to cell lines (viable count, MTT)", "setting": "[3]", "result": "non-toxic"}, {"measurement": "competition of F5M-A49 binding to A549 cells by free peptide", "setting": "A549 cells", "result": "blocked"}]}
